Laboratory results reported in the supplement of paper PMC11061612.

Experiments:
[1] = test system: TE-15 (Esophageal Squamous Cell Carcinoma); test: Bliss excess, mean over the matrix (fraction); higher = more synergy
Method in brief: (§1)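 Cell lines in DMEM/F12 or RPMI with 10% FBS were plated in 1536-well plates, held 24 hours at 37°C, 5% CO2, then given two-drug dose matrices for 72 hours (DMSO typically 0.2%). Viability was read by CellTiter-Glo 2.0 luminescence and scaled as inhibition from 0 (vehicle wells) to 1 (blank wells). Combination Emax is the second-highest inhibition in the matrix; Bliss excess is observed combination effect minus expected EA + EB − EA·EB, EA and EB being single-agent effects.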

[2] = test system: NCI-H82 (Small Cell Lung Carcinoma); test: as above
Method in brief: as §1

[3] = test system: LB831-BLC (Bladder Carcinoma); test: as above
Method in brief: as §1

[4] = test system: CCRF-CEM (T-Lymphoblastic Leukemia); test: as above
Method in brief: as §1

[5] = test system: HO-1-N-1 (Oral Cavity Carcinoma); test: combination Emax (second highest fraction inhibited in the dose matrix, 72 h); higher = more inhibition; extreme values may be limits of the assay
Method in brief: as §1

[6] = test system: KELLY (Neuroblastoma); test: as above
Method in brief: as §1

[7] = test system: CAL-148 (Breast Carcinoma); test: as above
Method in brief: as §1

[8] = test system: HOS (Osteosarcoma); test: as above
Method in brief: as §1

[9] = test system: UM-UC-3 (Bladder Carcinoma); test: as above
Method in brief: as §1

[10] = test system: CaR-1 (Colorectal Carcinoma); test: as above
Method in brief: as §1

[11] = test system: NCI-H82 (Small Cell Lung Carcinoma); test: as above
Method in brief: as §1

[12] = test system: NCI-H2085 (Non-Small Cell Lung Carcinoma); test: as above
Method in brief: as §1

[13] = test system: Hs-578-T (Breast Carcinoma); test: as above
Method in brief: as §1

[14] = test system: HT-1376 (Bladder Carcinoma); test: as above
Method in brief: as §1

[15] = test system: LB831-BLC (Bladder Carcinoma); test: as above
Method in brief: as §1

[16] = test system: KURAMOCHI (Ovarian Carcinoma); test: as above
Method in brief: as §1

[17] = test system: Ramos-2G6-4C10 (Burkitt's Lymphoma); test: as above
Method in brief: as §1

[18] = test system: LS-180 (Colorectal Carcinoma); test: as above
Method in brief: as §1

[19] = test system: T98G (Glioblastoma); test: as above
Method in brief: as §1

[20] = test system: CCRF-CEM (T-Lymphoblastic Leukemia); test: as above
Method in brief: as §1
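Wherever Bliss excess, mean over the matrix is given: after 72 h of two-drug dosing.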

Compound | Bliss excess [1] | Bliss excess [2] | Bliss excess [3] | Bliss excess [4] | combination Emax [5] | combination Emax [6] | combination Emax [7] | combination Emax [8] | combination Emax [9] | combination Emax [10] | combination Emax [11] | combination Emax [12] | combination Emax [13] | combination Emax [14] | combination Emax [15] | combination Emax [16] | combination Emax [17] | combination Emax [18] | combination Emax [19] | combination Emax [20]
Cc1cc2ncnn2cc1Nc1ncc2c(n1)n(C1CCOCC1)c(=O)n2C [AZD7648] + COc1cc([C@@H]2c3cc4c(cc3[C@@H](O[C@@H]3O[C@@H]5CO[C@@H](C)O[C@H]5[C@H](O)[C@H]3O)[C@H]3COC(=O)[C@H]23)OCO4)cc(OC)c1O [Etoposide] (first compound max 10 µM, 7x7, partner max 10 µM) | 0.0823 | 0.0583 | 0.103 | 0.104 | 0.987 | 0.793 | 1 | 0.879 | 0.875 | 0.661 | 0.848 | 0.434 | 0.662 | 0.515 | 0.836 | 0.474 | 0.963 | 0.729 | 0.741 | 1
O=C(c1cc(Cc2n[nH]c(=O)c3ccccc23)ccc1F)N1CCN(C(=O)C2CC2)CC1 [Olaparib] + CC1(C)CCC(CN2CCN(c3ccc(C(=O)NS(=O)(=O)c4ccc(NCC5CCOCC5)c([N+](=O)[O-])c4)c(Oc4cnc5[nH]ccc5c4)c3)CC2)=C(c2ccc(Cl)cc2)C1 [Venetoclax] (first compound max 10 µM, 7x7, partner max 1 µM) | -0.0098 | -0.0197 | -0.0271 | -0.0036 | 0.221 | 0.632 | 0.261 | 0.22 | 0.0664 | 0.0709 | 0.395 | 0.0675 | 0.308 | 0.0615 | 0.247 | 0.137 | 0.126 | 0.203 | 0.123 | 0.209
Cc1c2c(nn1C)CSCc1cc(n(C)n1)CSc1cc(c3ccccc3c1)OCCCc1c(C(=O)O)n(C)c3c-2c(Cl)ccc13 [AZD5991] + Nc1ccn([C@@H]2O[C@H](CO)[C@@H](O)C2(F)F)c(=O)n1 [Gemcitabine] (first compound max 1 µM, 7x7, partner max 0.3 µM) | 0 | 0.003 | -0.0443 | -0.0164 | 0.994 | 1 | 0.929 | 0.823 | 0.832 | 0.629 | 0.972 | 0.203 | 0.663 | 0.215 | 0.677 | 0.491 | 0.994 | 0.779 | 0.5 | 0.987
C[C@@H](Nc1cc(F)cc(F)c1)c1cc(C(=O)N(C)C)cc2c(=O)cc(N3CCOCC3)oc12 [AZD8186] + CC(=O)c1c(C)c2cnc(Nc3ccc(N4CCNCC4)cn3)nc2n(C2CCCC2)c1=O [Palbociclib] (first compound max 10 µM, 7x7, partner max 10 µM) | -0.0044 | -0.0338 | -0.0414 | -0.0167 | 0.505 | 0.434 | 0.655 | 0.336 | 0.621 | 0.471 | 0.526 | 0.61 | 0.656 | 0.0814 | 0.398 | 0.28 | 0.302 | 0.624 | 0.657 | 0.622
N#Cc1cnc(Nc2cc(NC[C@H]3CNCCO3)c(C(F)(F)F)cn2)cn1 [SRA737] + C=CCn1c(=O)c2cnc(Nc3ccc(N4CCN(C)CC4)cc3)nc2n1-c1cccc(C(C)(C)O)n1 [AZD1775] (first compound max 10 µM, partner max 1 µM) | 0.0209 | 0.0115 | -0.0446 | 0.0688 | 0.666 | 1 | 0.969 | 0.811 | 0.471 | 0.408 | 0.985 | 0.882 | 0.783 | 0.387 | 0.721 | 0.717 | 1 | 0.758 | 0.9 | 0.995
Cc1c2c(nn1C)CSCc1cc(n(C)n1)CSc1cc(c3ccccc3c1)OCCCc1c(C(=O)O)n(C)c3c-2c(Cl)ccc13 [AZD5991] + CC(=O)O[C@H]1C(=O)[C@@]2(C)[C@H]([C@H](OC(=O)c3ccccc3)[C@]3(O)C[C@H](OC(=O)[C@H](O)[C@@H](NC(=O)c4ccccc4)c4ccccc4)C(C)=C1C3(C)C)[C@]1(OC(C)=O)CO[C@@H]1C[C@@H]2O [Paclitaxel] (first compound max 1 µM, 7x7, partner max 3 µM) | 0.0224 | -0.0392 | 0.0261 | -0.0339 | 1 | 1 | 0.81 | 0.964 | 0.745 | 0.741 | 0.997 | 0.743 | 0.988 | 0.0587 | 0.733 | 0.539 | 1 | 0.822 | 0.883 | 0.992
